Measured values published in US9877921B2 (NOVA SOUTHEASTERN UNIVERSITY, priority 2011, dated 2018).

Experiment: Discoloration (degradation) after nanoparticle processing by microfluidization
Type: physicochemical
Conditions: after high energy fluidization
Method: Nanoparticles were fabricated from epinephrine base or epinephrine bitartrate (Bit) using high energy fluidization (microfluidization) techniques. […] Particles sizes were measured before and after size reduction using a Mastersizer (Malvern) and/or a NiComp 370 Submicron Particle Sizer (NiComp). The particles were lyophilized (freeze-dried) using a bench top lyophilizer (ART Inc.).
The main problem was discoloration (a brown color formed) due to degradation.

Sample Color after Processing (discoloration indicating instability): did not show any discoloration
SMILES: CNC[C@H](O)c1ccc(O)c(O)c1 [Epinephrine Bit, epinephrine bitartrate]
